Consider 12 compounds from patent publication US12065436B2, “Cardiac sarcomere inhibitors” (Cytokinetics, Inc., priority 2018, dated 2024).

The structures appear in SMILES notation.

For orientation: IC50 means the point on the concentration scale where inhibition reaches its midpoint.

The assay deals with bovine cardiac myofibrils (full-length cardiac myosin ATPase in the native sarcomere) (Bos taurus (Bovine), UniProt Q9BE39). The assay can be described thus: Skinned bovine cardiac myofibril ATPase assay (PK/LDH-coupled). Type of assay: biochemical. The note with it: Ca2+ activating to 75% of maximal rate; for CDMF75 IC15: concentration giving 15% inhibition; for IC50: read-out: CDMF75 IC50. The essentials:
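Inhibition of steady-state ATPase read at 340 nm through a PK/LDH-coupled NADH system (0.5 mM NADH, 1.5 mM PEP). Detergent-skinned bovine cardiac myofibrils, 1 mg/mL, were tested at pH 6.8 in PIPES/MgCl2 with 50 μM ATP and calcium adjusted to give pCa50 or pCa75 activation.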

bovine cardiac myofibrils (full-length cardiac myosin ATPase in the native sarcomere), sequence (Q9BE39 whole entry): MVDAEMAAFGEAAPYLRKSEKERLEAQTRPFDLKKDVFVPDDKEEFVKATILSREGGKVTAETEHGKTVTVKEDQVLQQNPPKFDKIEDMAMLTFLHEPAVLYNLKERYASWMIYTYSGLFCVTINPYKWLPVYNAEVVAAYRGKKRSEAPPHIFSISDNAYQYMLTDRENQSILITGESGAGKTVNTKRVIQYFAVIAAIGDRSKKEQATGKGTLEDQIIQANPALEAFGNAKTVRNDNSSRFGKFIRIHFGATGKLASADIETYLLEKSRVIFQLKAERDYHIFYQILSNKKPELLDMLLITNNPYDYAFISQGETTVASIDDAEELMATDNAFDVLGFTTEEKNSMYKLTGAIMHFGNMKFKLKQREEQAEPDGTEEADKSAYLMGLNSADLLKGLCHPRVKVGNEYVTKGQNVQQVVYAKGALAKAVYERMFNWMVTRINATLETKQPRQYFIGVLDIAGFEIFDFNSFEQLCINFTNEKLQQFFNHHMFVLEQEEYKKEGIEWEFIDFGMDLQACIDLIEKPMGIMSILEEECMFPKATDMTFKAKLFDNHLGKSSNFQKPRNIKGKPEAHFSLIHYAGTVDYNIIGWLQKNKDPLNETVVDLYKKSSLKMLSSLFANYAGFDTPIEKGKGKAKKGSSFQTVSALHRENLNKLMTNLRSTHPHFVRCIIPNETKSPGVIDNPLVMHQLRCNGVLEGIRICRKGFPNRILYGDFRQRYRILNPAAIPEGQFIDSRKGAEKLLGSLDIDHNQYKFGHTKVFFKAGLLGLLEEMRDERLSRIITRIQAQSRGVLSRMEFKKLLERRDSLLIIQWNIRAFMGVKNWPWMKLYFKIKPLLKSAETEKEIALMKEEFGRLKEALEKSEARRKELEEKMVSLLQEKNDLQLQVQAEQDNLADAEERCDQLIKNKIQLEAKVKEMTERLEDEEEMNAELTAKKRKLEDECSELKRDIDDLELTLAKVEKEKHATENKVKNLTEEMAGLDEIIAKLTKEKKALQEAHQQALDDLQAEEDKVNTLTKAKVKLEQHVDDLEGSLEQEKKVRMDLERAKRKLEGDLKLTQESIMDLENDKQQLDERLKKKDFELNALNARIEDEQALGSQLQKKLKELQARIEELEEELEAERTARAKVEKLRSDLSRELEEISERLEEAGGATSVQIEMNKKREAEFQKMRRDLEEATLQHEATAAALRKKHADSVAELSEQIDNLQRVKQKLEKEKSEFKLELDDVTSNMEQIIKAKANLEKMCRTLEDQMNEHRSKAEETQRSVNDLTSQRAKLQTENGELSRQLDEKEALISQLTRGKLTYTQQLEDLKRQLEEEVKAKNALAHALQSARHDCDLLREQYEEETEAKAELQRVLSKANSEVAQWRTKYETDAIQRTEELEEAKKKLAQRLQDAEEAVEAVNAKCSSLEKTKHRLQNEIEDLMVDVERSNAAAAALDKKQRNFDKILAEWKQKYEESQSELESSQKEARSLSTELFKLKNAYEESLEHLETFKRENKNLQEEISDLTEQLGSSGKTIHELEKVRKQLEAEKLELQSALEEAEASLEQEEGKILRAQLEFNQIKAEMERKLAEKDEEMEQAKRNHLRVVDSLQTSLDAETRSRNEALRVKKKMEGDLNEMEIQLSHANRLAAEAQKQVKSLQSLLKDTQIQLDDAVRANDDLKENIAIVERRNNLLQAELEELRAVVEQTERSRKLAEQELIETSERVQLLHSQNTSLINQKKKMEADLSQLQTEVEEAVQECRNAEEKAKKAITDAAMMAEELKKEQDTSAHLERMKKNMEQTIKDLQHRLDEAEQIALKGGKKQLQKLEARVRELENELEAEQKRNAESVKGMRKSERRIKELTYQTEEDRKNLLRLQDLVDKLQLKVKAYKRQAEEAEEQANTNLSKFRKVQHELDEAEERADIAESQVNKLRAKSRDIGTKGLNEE
bovine cardiac myofibrils (full-length cardiac myosin ATPase in the native sarcomere), sequence (P85100 whole entry partner): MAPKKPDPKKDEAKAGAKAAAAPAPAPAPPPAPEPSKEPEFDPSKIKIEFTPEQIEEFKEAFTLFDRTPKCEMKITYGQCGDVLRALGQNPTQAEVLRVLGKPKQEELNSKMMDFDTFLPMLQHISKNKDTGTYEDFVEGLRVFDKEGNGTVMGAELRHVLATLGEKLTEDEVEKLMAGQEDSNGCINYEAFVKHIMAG
bovine cardiac myofibrils (full-length cardiac myosin ATPase in the native sarcomere), sequence (Q3SZE5 whole entry partner): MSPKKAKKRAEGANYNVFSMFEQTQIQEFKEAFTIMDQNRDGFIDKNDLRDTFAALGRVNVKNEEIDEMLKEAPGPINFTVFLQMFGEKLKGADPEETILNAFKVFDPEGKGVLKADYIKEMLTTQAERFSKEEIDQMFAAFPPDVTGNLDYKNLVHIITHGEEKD

`Cc1ncoc1C(=O)N[C@@H]1CCc2cc(-c3noc(C4CC4)n3)ccc21` [Compound 390, (R)-N-(5-(5-cyclopropyl-1,2,4-oxadiazol-3-yl)-2,3-dihydro-1H-inden-1-yl)-4-methyloxazole-5-carboxamide]: the “CDMF75 IC15” value is 0.4 µM and the IC50 was determined as 1 µM.

`Cc1cc(C(=O)N[C@@H]2CCc3cc(-c4nc(C(F)F)no4)ccc32)ccn1` [Compound 133, (R)-N-(5-(3-(difluoromethyl)-1,2,4-oxadiazol-5-yl)-2,3-dihydro-1H-inden-1-yl)-2-methylisonicotinamide]: the “CDMF75 IC15” value is 1.5 µM and the IC50 turned out to be 5.7 µM.

Consider `Cc1cc(C(=O)N[C@@H]2CCc3cc(-c4cc(C)on4)ccc32)ccn1` [Compound 138, (R)-2-methyl-N-(5-(5-methylisoxazol-3-yl)-2,3-dihydro-1H-inden-1-yl)isonicotinamide], for which the “CDMF75 IC15” value is 0.8 µM and the IC50 was determined as 2.9 µM.

As for `O=C(NC1CCc2cc(-c3noc(C(F)F)n3)ccc21)c1ccccc1` (stereo not drawn) [Compound 4, N-(5-(5-(difluoromethyl)-1,2,4-oxadiazol-3-yl)-2,3-dihydro-1H-inden-1-yl)benzamide], the “CDMF75 IC15” value worked out at 0.43 µM and the IC50 was found to be 1.6 µM.

`Cn1cc(C(=O)N[C@@H]2CCc3cc(-c4nc(C(F)F)no4)ccc32)cn1` [Compound 276, (R)-N-(5-(3-(difluoromethyl)-1,2,4-oxadiazol-5-yl)-2,3-dihydro-1H-inden-1-yl)-1-methyl-1H-pyrazole-4-carboxamide]: the “CDMF75 IC15” value was 2.6 µM and the IC50 stood at 10.1 µM.

For the compound `Cc1ncc(C(=O)N[C@@H]2CCc3cc(-c4nc(C(F)F)no4)ccc32)o1` [Compound 215, (R)-N-(5-(3-(difluoromethyl)-1,2,4-oxadiazol-5-yl)-2,3-dihydro-1H-inden-1-yl)-2-methyloxazole-5-carboxamide], the “CDMF75 IC15” value was 3.0 µM and the IC50 was 12.4 µM.

Take `CCc1nc(-c2ccc3c(c2)CC[C@H]3NC(=O)c2nn[nH]n2)no1` [Compound 502, (R)-N-(5-(5-ethyl-1,2,4-oxadiazol-3-yl)-2,3-dihydro-1H-inden-1-yl)-2H-tetrazole-5-carboxamide]: the “CDMF75 IC15” value is 2.0 µM and the IC50 stood at 8 µM.

Turning to `Cc1nccc(C(=O)NC2CCc3cc(-c4noc(C(F)F)n4)ccc32)n1` (stereo not drawn) [Compound 26, N-(5-(5-(difluoromethyl)-1,2,4-oxadiazol-3-yl)-2,3-dihydro-1H-inden-1-yl)-2-methylpyrimidine-4-carboxamide], the “CDMF75 IC15” value is 7.8 µM and the IC50 was 30.5 µM.

`CCc1nc(-c2ccc3c(c2)CC[C@H]3NC(=O)c2ccc(C)nc2)no1` [Compound 625, (R)-N-(5-(5-ethyl-1,2,4-oxadiazol-3-yl)-2,3-dihydro-1H-inden-1-yl)-6-methylnicotinamide]: the “CDMF75 IC15” value amounted to 0.8 µM and the IC50 amounted to 3 µM.

Regarding `CCc1nc(-c2ccc3c(c2)CC[C@H]3NC(=O)c2cnn(CC(=O)OC)c2)no1` [Compound 473, methyl (R)-2-(4-((5-(5-ethyl-1,2,4-oxadiazol-3-yl)-2,3-dihydro-1H-inden-1-yl)carbamoyl)-1H-pyrazol-1-yl)acetate], the “CDMF75 IC15” value worked out at 1.1 µM and the IC50 was found to be 3.8 µM.

Consider `O=C1CC[C@H](C(=O)N[C@@H]2CCc3cc(-c4noc(C5CC5)n4)ccc32)N1` [Compound 336, (R)-N-((R)-5-(5-cyclopropyl-1,2,4-oxadiazol-3-yl)-2,3-dihydro-1H-inden-1-yl)-5-oxopyrrolidine-2-carboxamide], for which the “CDMF75 IC15” value was 30.9 µM and the IC50 is more than 39.2 µM.

On to `CCc1nc(-c2cc3c(cc2F)[C@H](NC(=O)c2cnn(C)c2)CC3)no1` [Compound 699, (R)-N-(5-(5-ethyl-1,2,4-oxadiazol-3-yl)-6-fluoro-2,3-dihydro-1H-inden-1-yl)-1-methyl-1H-pyrazole-4-carboxamide], for which the “CDMF75 IC15” value was 1.7 µM and the IC50 turned out to be 7.5 µM.
